These results are taken from ChEMBL document CHEMBL1201862, “PubChem BioAssay data set” (2004).

What all share (test): NCI tumour cell line growth inhibition, 48 h
In assay [1] the test system is ACHN.
Assay [2] has as its system CCRF-CEM.
For assay [3], the system named is DU-145.
The subject of assay [4] is HL-60.
Assay [5] has as its system HOP-62.
Assay [6] relates to HOP-92.
For assay [7], the system named is KM12.
Assay [8] concerns MDA-MB-435.
Assay [9] concerns MDA-N.
In assay [10] the test system is NCI-H226.
In assay [11] the test system is NCI-H23.
In assay [12] the test system is OVCAR-4.
Assay [13] concerns OVCAR-8.
The subject of assay [14] is SF-295.
Assay [15] has as its system SF-539.
For assay [16], the system named is SNB-19.
Assay [17] concerns SNB-75.
The subject of assay [18] is T47D.
The test system of assay [19] is UACC-257.
The test system of assay [20] is UACC-62.

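Five concentrations, 48 hours, 96-well plates. The concentration for 50% growth inhibition is given as GI50.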 The source made the active and inactive calls. Cut-off read from the data, not from the text of the source: active = GI50 up to about 1.1 µM and inactive = higher. A value given as a limit tells only on which side of the number the result lay.

Turning to `CN(O)C(=O)c1cccc(Cl)c1`, the GI50 in assay [1] was > 100 µM (inactive); in assay [2], 60 µM (inactive); in assay [3], > 100 µM (inactive); in assay [4], 10.2 µM (inactive); in assay [5] it was > 100 µM (inactive); in assay [6], > 100 µM (inactive). For the same molecule, the GI50 in assay [7], in assay [8], in [9], in assay [10], in assay [11] and in assay [12] was > 100 µM (inactive) throughout. The GI50 in [13], in assay [14], in [15], in [16], in assay [17] and in assay [18] was > 100 µM (inactive) each time. Further, the GI50 in assay [19] and in [20] was > 100 µM (inactive) each time.

In the case of `CCOC(=O)C(C)c1nc2cc(N3CCN(C)CC3)c(F)cc2[nH]c1=O` (stereo not given), the GI50 in assay [1], in assay [2], in assay [3], in assay [4], in assay [5] and in assay [6] was > 100 µM (inactive) in each case. Also, the GI50 in assay [7], in assay [8], in assay [9], in [10], in [11] and in assay [12] was > 100 µM (inactive) each time. For the same molecule, the GI50 in assay [13], in assay [14], in assay [15], in assay [16], in assay [17] and in assay [18] was > 100 µM (inactive) each time. Further, the GI50 in assay [19] and in assay [20] was > 100 µM (inactive) each time.

Take `CCN1CCc2sc3nc(S)n(C)c(=O)c3c2C1`: the GI50 in [1] was > 100 µM (inactive); in [2] it was < 0.01 µM (active); in assay [3] it was > 100 µM (inactive); in assay [4] it was < 0.01 µM (active); in assay [5], > 100 µM (inactive); in assay [6] it was > 100 µM (inactive). Besides, the GI50 in [7], in assay [8], in assay [9], in assay [10], in [11] and in assay [12] was > 100 µM (inactive) each time. In addition, the GI50 in [13], in assay [14], in assay [15], in [16], in assay [17] and in [18] was > 100 µM (inactive) throughout. For the same molecule, the GI50 in assay [19] and in assay [20] was > 100 µM (inactive) throughout.

For the molecule `NCCNC(=O)CN(CC(=O)O)C1CCCCC1N(CC(=O)O)CC(=O)O` (stereo not given), the GI50 in [1] was > 100 µM (inactive); in [2] it was > 100 µM (inactive); in assay [3], > 100 µM (inactive); in [4], > 100 µM (inactive); in assay [5], > 100 µM (inactive); in assay [6], 11.7 µM (inactive). For the same molecule, the GI50 in [7], in assay [8], in assay [9], in assay [10], in [11] and in [12] was > 100 µM (inactive) in each case. In addition, the GI50 was > 100 µM (inactive) in [13]; > 100 µM (inactive) in [14]; > 100 µM (inactive) in [15]; > 100 µM (inactive) in [16]; 2.32 µM (inactive) in [17]; > 100 µM (inactive) in assay [18]. In addition, the GI50 in assay [19] and in assay [20] was > 100 µM (inactive) each time.

With `O=C(CCc1ccccc1)ON1C(=S)NC(c2ccccc2)(c2ccccc2)C1=S`, the GI50 in assay [1] was 44.9 µM (inactive); in assay [2], 21.9 µM (inactive); in assay [3] it was 68.1 µM (inactive); in [4] it was 21.6 µM (inactive); in assay [5], 30.1 µM (inactive); in assay [6], 65 µM (inactive). For the same molecule, the GI50 in assay [7] is 27.4 µM (inactive); in assay [8], 36.9 µM (inactive); in [9] it was 38.1 µM (inactive); in assay [10], 22 µM (inactive); in assay [11] it was 30.3 µM (inactive); in assay [12] it was 33.7 µM (inactive). Further, the GI50 in [13] was 31.2 µM (inactive); in [14], 42 µM (inactive); in assay [15] it was 26.4 µM (inactive); in assay [16] it was 64.4 µM (inactive); in [17] it was 33 µM (inactive); in [18] it was 41.6 µM (inactive). Further, the GI50 was 36.5 µM (inactive) in [19] and 33.9 µM (inactive) in [20].

Turning to `COc1cc2oc(=O)ccc2cc1C(=O)CC(C)C`, the GI50 in assay [1] was > 100 µM (inactive); in assay [2], > 100 µM (inactive); in assay [3] it was > 100 µM (inactive); in assay [4], 39.2 µM (inactive); in assay [5], > 100 µM (inactive); in assay [6] it was > 100 µM (inactive). Also, the GI50 is > 100 µM (inactive) in [7]; > 100 µM (inactive) in [8]; > 100 µM (inactive) in assay [9]; 28.6 µM (inactive) in assay [10]; > 100 µM (inactive) in assay [11]; 71.1 µM (inactive) in assay [12]. Moreover, the GI50 was > 100 µM (inactive) in [13]; > 100 µM (inactive) in assay [14]; > 100 µM (inactive) in assay [15]; 56.1 µM (inactive) in [16]; 78.7 µM (inactive) in assay [17]; > 100 µM (inactive) in [18]. For the same molecule, the GI50 in assay [19] and in assay [20] was > 100 µM (inactive) throughout.

As to `CCOC(=O)C12CCC(c3c(C)cccc3C)(O1)C(C(=O)OC)=C2C(=O)OC` (stereo not given), the GI50 is > 8.49 µM (inactive) in assay [1]; 3.06 µM (inactive) in assay [2]; 4.24 µM (inactive) in [3]; 1.82 µM (inactive) in assay [4]; 4.11 µM (inactive) in [5]; 4.24 µM (inactive) in assay [6]. Besides, the GI50 in assay [7] is 4.28 µM (inactive); in assay [8], 0.499 µM (active); in assay [9], 0.484 µM (active); in assay [10], 5.52 µM (inactive); in [11], 3.4 µM (inactive); in assay [12] it was > 9.02 µM (inactive). In addition, the GI50 is 5.4 µM (inactive) in [13]; 5.45 µM (inactive) in assay [14]; 2.11 µM (inactive) in assay [15]; > 9.64 µM (inactive) in assay [16]; 3.64 µM (inactive) in assay [17]; 6.35 µM (inactive) in [18]. In addition, the GI50 in assay [19] is 2.58 µM (inactive); in assay [20], 4.73 µM (inactive).

Turning to `O=C1N(CN2CCOCC2)CN(CN2CCOCC2)C(=O)N1Cc1ccc(CN2C(=O)N(CN3CCOCC3)CN(CN3CCOCC3)C2=O)cc1`, the GI50 in [1] is 41.8 µM (inactive); in assay [2] it was 62.1 µM (inactive); in assay [3], 45.8 µM (inactive); in assay [4], 60.1 µM (inactive); in assay [5] it was > 100 µM (inactive); in assay [6], 52 µM (inactive). For the same molecule, the GI50 in assay [7] is 48.1 µM (inactive); in [8], 26.4 µM (inactive); in assay [9], 31.7 µM (inactive); in assay [10], > 100 µM (inactive); in [11], 34.4 µM (inactive); in [12], 35.7 µM (inactive). Further, the GI50 in assay [13] was 42 µM (inactive); in assay [14], > 100 µM (inactive); in assay [15] it was 44.8 µM (inactive); in [16], 97.7 µM (inactive); in [17], 89.7 µM (inactive); in assay [18], 53 µM (inactive). For the same molecule, the GI50 in assay [19] is 52.2 µM (inactive); in assay [20], 31.2 µM (inactive).
